Patent publication EP4431512A1, “NOVEL DUAL NK-1/NK-3 RECEPTOR ANTAGONISTS” (Bayer Consumer Care AG, priority 2023, dated 2024)

Legend:
Human NK3 receptor [1] = target: T1, Human NK3 receptor (Homo sapiens, UniProt P29371); test: NK3 receptor functional assay (antagonist effect, intracellular Ca2+, fluorimetry); format: cell-based; design: expressed in transfected cells; host or cells: CHO cells; settings: result in words; human NK3 receptors
T1 sequence (P29371 1-465): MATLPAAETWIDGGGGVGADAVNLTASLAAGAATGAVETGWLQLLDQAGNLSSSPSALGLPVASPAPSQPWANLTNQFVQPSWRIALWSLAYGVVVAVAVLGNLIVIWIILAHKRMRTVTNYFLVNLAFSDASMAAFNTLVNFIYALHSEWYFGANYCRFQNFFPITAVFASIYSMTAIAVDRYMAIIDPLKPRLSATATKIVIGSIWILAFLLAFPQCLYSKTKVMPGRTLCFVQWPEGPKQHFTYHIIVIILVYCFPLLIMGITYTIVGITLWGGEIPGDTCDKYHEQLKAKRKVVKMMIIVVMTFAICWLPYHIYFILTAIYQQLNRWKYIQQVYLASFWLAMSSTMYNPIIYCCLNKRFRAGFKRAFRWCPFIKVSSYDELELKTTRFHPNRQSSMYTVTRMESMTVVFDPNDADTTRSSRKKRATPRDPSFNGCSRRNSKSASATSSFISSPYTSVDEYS
Procedure: (§1) Cellular antagonist effect was calculated as a %-inhibition of reference agonist response for each target.
Human NK3 receptor antagonistic activity was determined by measuring antagonistic effects of the compounds of the formula on the reduction of agonist induced intracellular [Ca^2+] concentrations in CHO cells recombinantly expressing […] using an fluorimetric detection method. The assay was adapted from Medhurst, A.D. et al. (1999), Brit. J. Pharmacol., 128: 627-636. As an agonist to induce intracellular [Ca^2+] [MePhe^7]-NKB was used as outlined in the overview table below.
(§2) For the antagonists, the apparent dissociation constants (KB ) were calculated using the modified Cheng Prusoff equation KB = (IC50)/(1 + (A/EC50A)) [formula] where A = concentration of reference agonist in the assay, and EC50A = EC50 value of the reference agonist.

Human NK3 receptor [2] = target: T1, Human NK3 receptor; test: NK3 receptor binding assay (antagonist radioligand, scintillation counting); design: expressed in transfected cells; host or cells: CHO cells (membrane preparations); settings: for binding affinities: result in words, human NK3 receptors; for nH: NK3(h) (antagonist radioligand), Hill coefficient of competition curve
Procedure: Compound binding was calculated as a %-inhibition of the binding of a radioactively labeled ligand specific for each target.
NK3 receptor binding affinities of the compounds of the invention were determined by an scintillation counting and using membrane preparations of CHO cells recombinantly expressing human NK3 receptors (as described by Sarau, H.M. et al. (1997), J. Pharmacol. Exp. Ther., 281: 1303-1311).
The results are expressed as a percent of control specific binding (measured specific binding)/(control specific binding)*100 [formula] and as a percent inhibition of control specific binding 100−((measured specific binding)/(control specific binding)*100) [formula] obtained in the presence of the test compounds.
The IC50 values (concentration causing a half-maximal inhibition of control specific binding) and Hill coefficients (nH) were determined by non-linear regression analysis of the competition curves generated with mean replicate values using Hill equation curve fitting Y = D + [(A−D)/(1 + ((C/C50))^nH)] [formula] where Y = specific binding, A = left asymptote of the curve, D = right asymptote of the curve, C = compound concentration, C50 =IC50, and nH = slope factor. This analysis was performed using software developed at Cerep (Hill software) and validated by comparison with data generated by the commercial software SigmaPlot® 4.0 for Windows® (^© 1997 by SPSS Inc.).
The inhibition constants (Ki) were calculated using the Cheng Prusoff equation Ki = (IC50)/((1+L/KD)) [formula] where L = concentration of radioligand in the assay, and KD = affinity of the radioligand for the receptor. A scatchard plot is used todetermine the KD.

NK1 receptors [3] = target: T2, NK1 receptors (Homo sapiens, UniProt P25103); test: NK1 receptor functional assay (antagonist effect, intracellular Ca2+, fluorimetry); format: cell-based; design: Human astrocytoma U373MG cells do endogenously express NK1 receptors; endogenous in cells; host or cells: U373MG human astrocytoma cells; settings: result in words
Procedure: as §1
Human NK1 receptor antagonistic activity assays were performed by measuring antagonistic effects of the compounds of the formula on the reduction agonist induced intracellular [Ca^2+] calcium concentrations in the human astrocytoma cell line U373MG using fluorimetric detection. Human astrocytoma U373MG cells do endogenously express NK1 receptors and were used in the assay according to Eistetter, H.R. et al. (1992), Glia, 6: 89-95 and [Sar^9,Met(O2)^11]-Substance P was used as agonistic stimulus of the NK1 receptor in the cells and assay. Relevant particulars of the assay are outlined in the table below.
as §2

NK1 receptors [4] = target: T2, NK1 receptors; test: NK1 receptor binding assay (agonist radioligand, scintillation counting); design: that is endogenously expressing human NK1 receptors; endogenous in cells; host or cells: U373 MG human astrocytoma cells (membrane preparations); settings: NK1(h) (agonist radioligand); Hill coefficient of competition curve
Description: A scatchard plot is used todetermine the KD.

T2 sequence (P25103 whole entry): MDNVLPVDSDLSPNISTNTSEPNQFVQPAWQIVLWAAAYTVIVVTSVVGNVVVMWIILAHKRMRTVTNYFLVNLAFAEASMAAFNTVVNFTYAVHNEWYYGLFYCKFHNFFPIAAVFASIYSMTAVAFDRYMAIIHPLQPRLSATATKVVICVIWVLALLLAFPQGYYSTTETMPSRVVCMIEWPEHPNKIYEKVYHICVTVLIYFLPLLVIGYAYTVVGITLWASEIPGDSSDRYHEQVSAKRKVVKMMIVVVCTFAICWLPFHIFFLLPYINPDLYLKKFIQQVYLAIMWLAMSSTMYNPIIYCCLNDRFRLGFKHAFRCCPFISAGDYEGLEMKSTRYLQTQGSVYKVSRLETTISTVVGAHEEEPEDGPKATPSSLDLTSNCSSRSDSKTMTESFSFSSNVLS

CN(C(=O)C(C)(C)c1cc(C(F)(F)F)cc(C(F)(F)F)c1)c1cnc(N2C[C@H]3COCCN3C[C@H]2CO)cc1-c1ccc(F)cc1CO [compound of formula (V), 2-[3,5-bis(trifluoromethyl)phenyl]-N-{4-[4-fluoro-2-(hydroxymethyl)phenyl]-6-[(7S,9aS)-7-(hydroxymethyl)hexahydropyrazino[2,1-c][1,4]oxazin-8(1H)-yl]pyridin-3-yl}-N,2-dimethylpropanamide]
antagonistic activities (Human NK3 receptor [1]): significant
binding affinities (Human NK3 receptor [2]): significant
antagonistic activities (NK1 receptors [3]): significant

CC1CN2C[C@@H](CO)N(c3cc(-c4ccc(F)cc4CO)c(N(C)C(=O)C(C)(C)c4cc(C(F)(F)F)cc(C(F)(F)F)c4)cn3)C[C@H]2CO1 (stereo partly drawn) [compound of formula (III), 2-[3,5-bis(trifluoromethyl)phenyl]-N-{4-[4-fluoro-2-(hydroxymethyl)phenyl]-6-[(7S,9aS)-7-(hydroxymethyl)-3-methylhexahydropyrazino[2,1-c][1,4]oxazin-8(1H)-yl]pyridin-3-yl}-N,2-dimethylpropanamide]
antagonistic activities (Human NK3 receptor [1]): significant
nH (Human NK3 receptor [2]): 1
binding affinities (Human NK3 receptor [2]): significant
antagonistic activities (NK1 receptors [3]): significant
nH (NK1 receptors [4]): 1

Cc1cc(F)ccc1-c1cc(N2C[C@H]3COCC[N+]3([O-])C[C@H]2CO)ncc1N(C)C(=O)C(C)(C)c1cc(C(F)(F)F)cc(C(F)(F)F)c1 (stereo partly drawn) [compound of formula (II), N-[6-[(7S,9aS)-7-(hydroxymethyl)-5-oxido-3,4,6,7,9,9a-hexahydro-1H-pyrazino[2,1-c][1,4]oxazin-5-ium-8-yl]-4-(4-fluoro-2-methyl-phenyl)-3-pyridyl]-2-[3,5-bis(trifluoromethyl)phenyl]-N,2-dimethyl-propanamide]
antagonistic activities (Human NK3 receptor [1]): significant
binding affinities (Human NK3 receptor [2]): significant
antagonistic activities (NK1 receptors [3]): significant

Cc1cc(F)ccc1-c1cc(N2C[C@H]3COC(C)CN3C[C@H]2CO)ncc1N(C)C(=O)C(C)(C)c1cc(C(F)(F)F)cc(C(F)(F)F)c1 (stereo partly drawn) [compound of formula (IV), 2-[3,5-bis(trifluoromethyl)phenyl]-N-{4-(4-fluoro-2-methylphenyl)-6-[(7S,9aS)-7-(hydroxymethyl)-3-methylhexahydropyrazino[2,1-c][1,4]oxazin-8(1H)-yl]pyridin-3-yl}-N,2-dimethylpropanamide]
antagonistic activities (Human NK3 receptor [1]): significant
nH (Human NK3 receptor [2]): 1.3
binding affinities (Human NK3 receptor [2]): significant
antagonistic activities (NK1 receptors [3]): significant
nH (NK1 receptors [4]): 1.2
